Measurements: US20100172854A1, “ANTIBACTERIAL FORMULATIONS” (priority 2007, published 2010)
In brackets after ≈: the same amount, converted by molar mass.

How the values were obtained:
S. aureus CPHL EMRSA 17 [1] = assay: MBC assay; format: cell-based, Staphylococcus aureus; settings: resistance phenotype Met/β-lactams
Procedure: (§1) The staphylococci were cultured and maintained on Mueller-Hinton Medium (agar and broth) at pH 7.2; cultures were incubated aerobically at 37° C. for 19-20 hours.
(§2) This assay, normally carried out after an MIC assay, determines the minimum concentration of a compound that is lethal to the micro-organism being tested.
(§3) These samples were then individually sub-cultured on antibiotic-free agar medium, under the incubation conditions described above. Following incubation they were examined visually for microbial growth.

S. aureus CPHL EMRSA 15 = assay: MBC assay; format: cell-based, Staphylococcus aureus; settings: resistance phenotype Met/β-lactams
Procedure: as §1, §2, §3

S. aureus NCTC 12981 = assay: MBC assay; format: cell-based, Staphylococcus aureus
Procedure: as §1, §2, §3

S. aureus CPHL VISA Mu50 = assay: MBC assay; format: cell-based, Staphylococcus aureus; settings: resistance phenotype Van (intermediate)
Procedure: as §1, §2, §3

S. aureus ATCC 12606 [2] = assay: MBC assay; format: cell-based, Staphylococcus aureus
Procedure: as §1, §2, §3

S. aureus ATCC 12607 [3] = assay: MBC assay; format: cell-based, Staphylococcus aureus
Procedure: as §1, §2, §3

S. aureus ATCC 12602 [4] = assay: MBC assay; format: cell-based, Staphylococcus aureus
Procedure: as §1, §2, §3

S. aureus ATCC 25923 = assay: MBC assay; format: cell-based, Staphylococcus aureus
Procedure: as §1, §2, §3

S. aureus ATCC 12601 [5] = assay: MBC assay; format: cell-based, Staphylococcus aureus
Procedure: as §1, §2, §3

[6] = tested on: Porphyromonas gingivalis NCTC 11834; assay: MBC assay; format: cell-based
Procedure: (§4) The P. gingivalis strains were cultured and maintained on Wilkins-Chalgren Anaerobe Medium (agar and broth) at pH 7.0; all cultures were incubated anaerobically at 37° C. for 5-7 days.
as §2, §3

[7] = tested on: Porphyromonas gingivalis ATCC 53978; assay: MBC assay; format: cell-based
Procedure: as §4, §2, §3

[8] = tested on: Porphyromonas gingivalis ATCC BAA-308; assay: MBC assay; format: cell-based
Procedure: as §4, §2, §3

S. aureus CPHL EMRSA 17 [9] = assay: MIC assay; format: cell-based; settings: Staphylococcus aureus
Procedure: as §1
(§5) This is a standard international method for quantitatively assessing the antimicrobial activity of a compound in a liquid medium. The method used a sterile 96-well microtitre plate, capable of holding about 200 μl of liquid per well. The wells contained liquid culture medium and ranges of decreasing concentrations of the relevant test compound in doubling dilutions (e.g. 1000, 500, 250, 125 . . . μg/ml, etc. down to 0.49 μg/ml). The culture media were as described above.
(§6) The wells were inoculated with a liquid suspension of freshly grown micro-organism and incubated under the conditions described above. After incubation, the microtitre plate was examined visually (with the aid of a light box) for cloudiness in each well, which would indicate microbial growth. The MIC value was recorded as the lowest concentration of test compound required to inhibit microbial growth, i.e. the lowest concentration for which the liquid in the well remained clear.
(§7) The assays included both negative (culture medium with no micro-organisms) and positive (culture medium plus diluting solvent plus micro-organism) controls.

[10] = tested on: Staphylococcus haemolyticus ATCC 29970; assay: MIC assay; format: cell-based; settings: ATCC29970
Procedure: as §1, §5, §6, §7

S. aureus ATCC 12606 [11] = assay: MIC assay; format: cell-based; settings: Staphylococcus aureus, ATCC12606
Procedure: as §1, §5, §6, §7

[12] = tested on: S. saprophyticus NCTC 7292; assay: MIC assay; format: cell-based; settings: Staphylococcus saprophyticus, NCTC7292
Procedure: as §1, §5, §6, §7

S. aureus CPHL VISA Mu3 = assay: MIC assay; format: cell-based; settings: Staphylococcus aureus
Procedure: as §1, §5, §6, §7

S. aureus NCTC 12493 = assay: MIC assay; format: cell-based; settings: Staphylococcus aureus, NCTC12493, resistance phenotype Met
Procedure: as §1, §5, §6, §7

[13] = tested on: Staphylococcus aureus ATCC 29213; assay: MIC assay; format: cell-based; settings: ATCC29213, S. aureus ATCC 29213
Procedure: as §1, §5, §6, §7

[14] = tested on: S. aureus CPHL GISA HO41340156; assay: MIC assay; format: cell-based; settings: Staphylococcus aureus
Procedure: as §1, §5, §6, §7

[15] = tested on: Staphylococcus auricularis ATCC 33753; assay: MIC assay; format: cell-based; settings: ATCC33753
Procedure: as §1, §5, §6, §7

[16] = tested on: Staphylococcus aureus ATCC 12600; assay: MIC assay; format: cell-based; settings: ATCC12600
Procedure: as §1, §5, §6, §7

S. aureus ATCC 12607 [17] = assay: MIC assay; format: cell-based; settings: Staphylococcus aureus, ATCC12607
Procedure: as §1, §5, §6, §7

[18] = tested on: Staphylococcus simulans ATCC 27848; assay: MIC assay; format: cell-based; settings: ATCC27848
Procedure: as §1, §5, §6, §7

S. aureus ATCC 12604 = assay: MIC assay; format: cell-based; settings: Staphylococcus aureus, ATCC12604
Procedure: as §1, §5, §6, §7

S. aureus ATCC 12602 [19] = assay: MIC assay; format: cell-based; settings: Staphylococcus aureus, ATCC12602
Procedure: as §1, §5, §6, §7

[20] = tested on: Staphylococcus cohnii ATCC 29974; assay: MIC assay; format: cell-based; settings: ATCC29974
Procedure: as §1, §5, §6, §7

S. aureus ATCC 12605 = assay: MIC assay; format: cell-based; settings: Staphylococcus aureus, ATCC12605
Procedure: as §1, §5, §6, §7

S. aureus ATCC 12601 [21] = assay: MIC assay; format: cell-based; settings: Staphylococcus aureus, ATCC12601
Procedure: as §1, §5, §6, §7

## Cc1cc(Cc2cc(C)cc(C(C)(C)C)c2O)c(O)c(C(C)(C)C)c1 [AO 2246, 2,2′-methylene-bis(4-methyl-6-tert-butylphenol)]
S. aureus CPHL EMRSA 17 [1]; Staphylococcus aureus
  MBC: 7.8 mg/L (≈ 22.9 µM)
S. aureus CPHL EMRSA 17 [1]
  MIC/MBC Ratio: 0.25
S. aureus CPHL EMRSA 15; Staphylococcus aureus
  MBC: 7.8 mg/L (≈ 22.9 µM)
S. aureus CPHL EMRSA 15
  MIC/MBC Ratio: 0.25
S. aureus NCTC 12981
  MIC/MBC Ratio: 0.25
S. aureus NCTC 12981; Staphylococcus aureus, NCTC12981
  MBC: 7.8 mg/L (≈ 22.9 µM)
S. aureus CPHL VISA Mu50; Staphylococcus aureus
  MBC: 15.6 mg/L (≈ 45.8 µM)
S. aureus CPHL VISA Mu50
  MIC/MBC Ratio: 0.06
S. aureus ATCC 12606 [2]
  MIC/MBC Ratio: 0.5
S. aureus ATCC 12606 [2]; Staphylococcus aureus, ATCC12606
  MBC: 3.9 mg/L (≈ 11.5 µM)
S. aureus ATCC 12607 [3]
  MIC/MBC Ratio: 0.25
S. aureus ATCC 12607 [3]; Staphylococcus aureus, ATCC12607
  MBC: 7.8 mg/L (≈ 22.9 µM)
S. aureus ATCC 12602 [4]
  MIC/MBC Ratio: 0.5
S. aureus ATCC 12602 [4]; Staphylococcus aureus, ATCC12602
  MBC: 3.9 mg/L (≈ 11.5 µM)
S. aureus ATCC 25923
  MIC/MBC Ratio: 1
S. aureus ATCC 25923; Staphylococcus aureus, ATCC25923
  MBC: 7.8 mg/L (≈ 22.9 µM)
S. aureus ATCC 12601 [5]
  MIC/MBC Ratio: 1
S. aureus ATCC 12601 [5]; Staphylococcus aureus, ATCC12601
  MBC: 1.95 mg/L (≈ 5.73 µM)
[6]
  MIC/MBC Ratio: 1
[6]; NCTC11834
  MBC: 3.9 mg/L (≈ 11.5 µM)
[7]
  MBC: 1.95 mg/L (≈ 5.73 µM)
  MIC/MBC Ratio: 0.5
[8]
  MIC/MBC Ratio: 1
[8]; ATCCBAA308
  MBC: 3.9 mg/L (≈ 11.5 µM)
S. aureus CPHL EMRSA 17 [9]
  MIC: 1.95 mg/L (≈ 5.73 µM)
[10]
  MIC: 3.9 mg/L (≈ 11.5 µM)
S. aureus ATCC 12606 [11]
  MIC: 1.95 mg/L (≈ 5.73 µM)
[12]
  MIC: 3.9 mg/L (≈ 11.5 µM)
S. aureus CPHL VISA Mu3
  MIC: 1.95 mg/L (≈ 5.73 µM)
S. aureus NCTC 12493
  MIC: 0.98 mg/L (≈ 2.88 µM)
[13]
  MIC: 3.9 mg/L (≈ 11.5 µM)
[14]
  MIC: 1.95 mg/L (≈ 5.73 µM)
[15]
  MIC: 1.95 mg/L (≈ 5.73 µM)
[16]
  MIC: 0.98 mg/L (≈ 2.88 µM)
S. aureus ATCC 12607 [17]
  MIC: 1.95 mg/L (≈ 5.73 µM)
[18]
  MIC: 15.6 mg/L (≈ 45.8 µM)
S. aureus ATCC 12604
  MIC: 1.95 mg/L (≈ 5.73 µM)
S. aureus ATCC 12602 [19]
  MIC: 1.95 mg/L (≈ 5.73 µM)
[20]
  MIC: 3.9 mg/L (≈ 11.5 µM)
S. aureus ATCC 12605
  MIC: 1.95 mg/L (≈ 5.73 µM)
S. aureus ATCC 12601 [21]
  MIC: 1.95 mg/L (≈ 5.73 µM)
